One series relates to KB cells. Kind of series: In Vitro KB Cell Cytotoxicity Assay (crystal violet). The conditions noted are these: Homo sapiens, 72 h, read-out: Cytotoxicity TD50 KB. Format: cell-based. The procedure: KB cells were cultivated in Eagles minimum essential medium supplemented with 10% calf serum and incubated at 37° C. in a humidified 5% CO2 atmosphere to prepare a cell stock. Cells were counted using a neubauer hemocytometer and seeded in 96 well plates at 100 μl of 3×10^4 cells/ml and cultured for one day. […] Control wells were identical except that test compound was absent. These were cultured for three days. […] Then stained with 100 μl of 0.05% crystal violet for 15 minutes, washed with water and dried. The wells were eluted with 100 μl of 0.05M NaH2 PO4 /ethanol (1:1 v/v) and read at OD540 on a multiscan spectrophotometer. TD50 values were calculated using the following formula.

The next series concerns Sarcoma 180. As to the kind of experiment: In Vivo Antitumor Activity Against Sarcoma 180. The conditions noted are these: for Mortality in 12 days: i.p., days 1, 5 and 9.
Where [1] appears, read: Mus musculus, Sarcoma-180, ip, 288 h, read-out: % Inhibition of tumor growth.

≈ marks a conversion by molar mass, not a printed value.

Method for Sarcoma 180: Sarcoma 180, 5×10^6 cells were inoculated by S.C. to male ICR mice (6 weeks old) on day 0. Drugs were administered on days 1, 5 and 9. Mice were killed and tumor weight was measured on day 12 after transplantation. The percentage inhibition of tumor growth was calculated from the mean tumor weight of the treated group compared with that of the control group. Number of mice used in each group was between 6 to 10.

In the case of `CC(C)C(=O)OC[C@H]1CN2C(=O)C[C@@H]2O1` (racemic) [compound 9, (3RS, 5SR)-3-(2-Methylpropionyloxymethyl)-4-oxa-1-azabicyclo [3,2,0]heptan-7-one], the CC50 with KB cells is 0.4 µg/mL (≈ 1.88 µM).
The same measure, in the same setting: the value for `C#CCCC(=O)OC[C@H]1CN2C(=O)C[C@@H]2O1` (racemic) [compound 17, (3RS, 5SR)-3-(4-Pentynoyloxymethyl)-4-oxa-1-azabicyclo [3,2,0]heptan-7-one] was 0.27 µg/mL (≈ 1.21 µM); that for `O=C(OC[C@H]1CN2C(=O)C[C@@H]2O1)c1ccccc1` (racemic) [compound 18, (3RS, 5SR)-3-Benzoyloxymethyl-4-oxa-1-azabicyclo[3,2,0]heptan-7-one] was 5 µg/mL (≈ 20.2 µM).
Regarding `O=C([O-])c1ccccc1C(=O)OC[C@H]1CN2C(=O)C[C@@H]2O1.[Na+]` (racemic) [compound 25, Sodium (3RS, 5SR)-2-[(4-oxa-1-azabicyclo [3,2,0]heptan-7-one-3-yl)methyloxycarbonyl]benzoate], the CC50 in the series with KB cells stood at 1.5 µg/mL. For the same compound, in the series on Sarcoma 180 (100 mg/kg/day), the “Mortality in 12 days” value is 2/6. For the same compound, in the series with Sarcoma 180 (setting [1]), the inhibition in vivo at 100 mg/kg worked out at 44.1%.
`O=C(CC(O)C(=O)OC[C@H]1CN2C(=O)C[C@@H]2O1)OC[C@H]1CN2C(=O)C[C@@H]2O1` (mixture of isomers) [compound 28, Bis [(3RS, 5SR)-(4-oxa-1-azabicyclo[3,2,0]heptan-7-one-3-yl)-methyl]-2-hydroxysuccinate]: in the series with KB cells, the CC50 amounted to 0.3 µg/mL (≈ 0.781 µM).
Consider `O=C(OC[C@H]1CN2C(=O)C[C@@H]2O1)C(O)C(O)C(=O)OC[C@H]1CN2C(=O)C[C@@H]2O1` (mixture of isomers) [compound 29, Bis [(3RS, 5SR)-(4-oxa-1-azabicyclo[3,2,0]heptan-7-one-3-yl)-methyl]-2,3-dihydroxysuccinate], for which, in the series on KB cells, the CC50 came out at 0.3 µg/mL (≈ 0.749 µM).
`O=C(OC[C@H]1CN2C(=O)C[C@@H]2O1)c1ccc(F)cc1` (racemic) [compound 31, (3RS, 5SR)-3-(4-Fluorobenzoyloxymethyl)-4-oxa-1-azabicyclo [3,2,0]heptan-7-one]: the CC50 in the series on KB cells amounted to 0.4 µg/mL (≈ 1.51 µM). The “Mortality in 12 days” value in the series on Sarcoma 180 (12.5 mg/kg/day) is recorded as 0/7. The “Mortality in 12 days” value in the series with Sarcoma 180 (25 mg/kg/day) is listed as 0/7. In addition, in the series with Sarcoma 180 (setting [1]), the inhibition in vivo at 12.5 mg/kg turned out to be 53.2% and the inhibition in vivo at 25 mg/kg stood at 69.4%.
As to `O=C(OC[C@H]1CN2C(=O)C[C@@H]2O1)c1cc(F)c(F)cc1F` (racemic) [compound 32, (3RS, 5SR)-3-(2,4,5-Trifluorobenzoyloxymethyl)-4-oxa-1-azabicyclo[3,2,0]heptan-7-one], the CC50 in the series with KB cells turned out to be 0.3 µg/mL (≈ 0.996 µM).
Still for that read-out and setting: the value for `Nc1ccc(C(=O)OC[C@H]2CN3C(=O)C[C@@H]3O2)cc1` (racemic) [compound 34, (3RS, 5SR)-3-(4-Aminobenzoyloxymethyl)-4-oxa-1-azabicyclo [3,2,0]heptan-7-one] was 0.4 µg/mL (≈ 1.53 µM); that for `COc1cc(C(=O)OC[C@H]2CN3C(=O)C[C@@H]3O2)cc(OC)c1O` (racemic) [compound 35, (3RS, 5SR)-3-(4-Hydroxy-3,5-dimethoxybenzoyloxymethyl)-4-oxa-1-azabicyclo [3,2,0]heptan-7-one] was 0.8 µg/mL (≈ 2.47 µM).
Regarding `O=C1C[C@@H]2O[C@@H](CSCc3ccccc3)CN12` (racemic) [compound 41, (3RS,5SR)-3-Benzylthiomethyl-4-oxa-1-azabicyclo[3,2,0]heptan-7-one], the CC50 in the series on KB cells was 5 µg/mL (≈ 20.1 µM). Also, the “Mortality in 12 days” value with Sarcoma 180 (6.25 mg/kg/day) is given as 0/6. For the same compound, in the series on Sarcoma 180 (setting [1]), the inhibition in vivo at 6.25 mg/kg amounted to 17.1%.
As for `O=C1C[C@@H]2O[C@@H](CS(=O)(=O)Cc3ccccc3)CN12` (racemic) [compound 43, (3RS, 5SR)-3-Benzylsulfonylmethyl-4-oxa-1-azabicyclo[3,2,0]heptan-7-one], the CC50 in the series with KB cells is 0.5 µg/mL (≈ 1.78 µM). Moreover, the “Mortality in 12 days” value with Sarcoma 180 (12.5 mg/kg/day) is 0/6. Besides, in the series on Sarcoma 180 (setting [1]), the inhibition in vivo at 12.5 mg/kg was determined as 19.5%.
As to `O=C1C[C@@H]2O[C@@H](CSc3ccccc3)CN12` (racemic) [compound 44, (3RS, 5SR)-3-Phenylthiomethyl-4-oxa-1-azabicyclo[3,2,0]heptan-7-one], the CC50 with KB cells stood at 3 µg/mL (≈ 12.7 µM).
On the same count and under the same terms, with `O=C1C[C@@H]2O[C@@H](CS(=O)(=O)c3ccccc3)CN12` (racemic) [compound 46, (3RS, 5SR)-3-Phenylsulfonylmethyl-4-oxa-1-azabicyclo[3,2,0]heptan-7-one] the figure was 2 µg/mL (≈ 7.48 µM).
With `O=C1C[C@@H]2O[C@H](CCO)CN12` (racemic) [compound 50, (3RS, 5SR)-3-Hydroxyethyl-4-oxa-1-azabicyclo[3,2,0]heptan-7-one], the CC50 in the series with KB cells was found to be 0.7 µg/mL (≈ 4.45 µM). Further, the “Mortality in 12 days” value in the series with Sarcoma 180 (50 mg/kg/day) is reported as 0/6. The inhibition in vivo at 50 mg/kg in the series with Sarcoma 180 (setting [1]) was found to be 65.3%.
`Cc1ccc(S(=O)(=O)C[C@H]2CN3C(=O)C[C@@H]3O2)cc1` (racemic) [compound 51, (3RS, 5SR)-3-(4-Methylbenzenesulfonyl)methyl-4-oxa-1-azabicyclo[3,2,0]heptan-7-one]: in the series with KB cells, the CC50 is 1 µg/mL (≈ 3.55 µM).
On to `CC(C)CC(=O)OC[C@H]1CN2C(=O)C[C@@H]2O1` (relative stereo) [compound 10, (3RS, 5SR)-3-Methylbutyryloxymethyl-4-oxa-1-azabicyclo [3,2,0]heptan-7-one], for which the CC50 with KB cells was 0.25 µg/mL (≈ 1.1 µM).
Regarding `CC(C)CCC(=O)OC[C@H]1CN2C(=O)C[C@@H]2O1` (relative stereo) [compound 11], the CC50 with KB cells worked out at 0.4 µg/mL (≈ 1.66 µM).
Still for that read-out and setting: the value for `CCCCC(C)C(=O)OC[C@H]1CN2C(=O)C[C@@H]2O1` (relative stereo) [compound 12] was 0.4 µg/mL (≈ 1.57 µM); that for `Cc1cc(C)c(C(=O)OC[C@H]2CN3C(=O)C[C@@H]3O2)c(C)c1` (relative stereo) [compound 19] was 2 µg/mL (≈ 6.91 µM).
For the compound `COc1ccc(C(=O)OC[C@H]2CN3C(=O)C[C@@H]3O2)cc1` (relative stereo) [compound 20], the CC50 in the series with KB cells worked out at 0.6 µg/mL (≈ 2.16 µM). Besides, in the series on Sarcoma 180 (3.13 mg/kg/day), the “Mortality in 12 days” value is given as 0/7. In addition, the “Mortality in 12 days” value in the series on Sarcoma 180 (6.25 mg/kg/day) is listed as 0/7. The “Mortality in 12 days” value in the series on Sarcoma 180 (12.5 mg/kg/day) is 0/7. For the same compound, the “Mortality in 12 days” value with Sarcoma 180 (25 mg/kg/day) was 0/7. Besides, in the series with Sarcoma 180 (setting [1]), the inhibition in vivo at 3.13 mg/kg is 60%, the inhibition in vivo at 6.25 mg/kg stood at 68.6%, the inhibition in vivo at 12.5 mg/kg turned out to be 59.1% and the inhibition in vivo at 25 mg/kg was found to be 74.1%.
Consider `O=C(OC[C@H]1CN2C(=O)C[C@@H]2O1)c1ccc(O)cc1` (relative stereo) [compound 21], for which, in the series with KB cells, the CC50 stood at 2.2 µg/mL (≈ 8.36 µM). Moreover, the “Mortality in 12 days” value in the series with Sarcoma 180 (50 mg/kg/day) is listed as 0/6. In the series on Sarcoma 180 (setting [1]), the inhibition in vivo at 50 mg/kg came out at 48.3%.
For `O=C(OC[C@H]1CN2C(=O)C[C@@H]2O1)c1ccc(O)c(O)c1` (relative stereo) [compound 22], in the series on KB cells, the CC50 worked out at 2.5 µg/mL (≈ 8.95 µM).
`O=C(O)COc1ccc(C(=O)OC[C@H]2CN3C(=O)C[C@@H]3O2)cc1` (relative stereo) [compound 23, Sodium (3RS, 5SR)-4-(4-oxa-1-azabicyclo [3,2,0]heptan-7-one-3-methyloxycarbonyl)phenoxyacetate]: the CC50 in the series with KB cells came out at 8.7 µg/mL. In addition, in the series on Sarcoma 180 (50 mg/kg/day), the “Mortality in 12 days” value is given as 0/6. For the same compound, in the series with Sarcoma 180 (setting [1]), the inhibition in vivo at 50 mg/kg amounted to 23.7%.
With `O=C(O)C1CCCCC1C(=O)OC[C@H]1CN2C(=O)C[C@@H]2O1` (relative stereo) [compound 24, Sodium (3RS, 5SR)-2-(4-oxa-1-azabicyclo [3,2,0]heptan-7-one-3-methyloxycarbonyl)cyclohexyl-2-carboxylate], the CC50 in the series with KB cells is 0.7 µg/mL.
Take `O=C(O)CCC(=O)OC[C@H]1CN2C(=O)C[C@@H]2O1` (relative stereo) [compound 26]: in the series with KB cells, the CC50 was 9.8 µg/mL (≈ 40.3 µM).
In the case of `O=C(O)/C=C/C(=O)OC[C@H]1CN2C(=O)C[C@@H]2O1` (relative stereo) [compound 27, Sodium [(3RS, 5SR)-(4-oxa-1-azabicyclo[3,2,0]heptan-7-one-3-yl)methyl]fumarate], the CC50 in the series on KB cells is 2.4 µg/mL.
`O=C(/C=C\C(=O)OC[C@H]1CN2C(=O)C[C@@H]2O1)OC[C@H]1CN2C(=O)C[C@@H]2O1` (relative stereo) [compound 30, Bis [(3RS, 5SR)-(4-oxa-1-azabicyclo[3,2,0]heptan-7-one-3-yl)-methyl]maleate]: the CC50 with KB cells was 0.05 µg/mL (≈ 0.136 µM). Besides, the “Mortality in 12 days” value with Sarcoma 180 (12.5 mg/kg/day) is reported as 0/6. The “Mortality in 12 days” value with Sarcoma 180 (25 mg/kg/day) was 0/6. In addition, in the series with Sarcoma 180 (setting [1]), the inhibition in vivo at 12.5 mg/kg is 34% and the inhibition in vivo at 25 mg/kg turned out to be 76.9%.
In the case of `N#Cc1ccc(C(=O)OC[C@H]2CN3C(=O)C[C@@H]3O2)cc1` (relative stereo) [compound 33, (3RS, 5SR)-3-(4-Cyanobenzoyloxyymethyl)-4-oxa-1-azabicyclo [3,2,0]heptan-7-one], the CC50 in the series with KB cells worked out at 0.3 µg/mL (≈ 1.1 µM).
On the same count and under the same terms, with `COc1ccc(COC[C@H]2CN3C(=O)C[C@@H]3O2)cc1OC` [39A] the figure was 0.56 µg/mL (≈ 1.91 µM); with `COc1ccc(COC[C@H]2CN3C(=O)C[C@H]3O2)cc1OC` [39B, (3R,5R)-3-(3,4-Dimethoxybenzyloxymethyl)-4-oxa-1-azabicyclo[3,2,0] heptan-7-one], 0.57 µg/mL (≈ 1.94 µM).

The values are drawn from patent US5561126A, “4-oxa-1-azabicyclo [3,2,0] heptan-7-one derivatives as antitumor agents” (Taiho Pharmaceutical Co., Ltd., priority 1992, dated 1996).
